Assays:
Assay type in all cases: cell-based, rat
INS-1 cells = assay: Annexin V apoptosis of INS-1 cells under ER stress
Description: FIGS. 19A-19D. KIRA6 inhibits Terminal UPR outputs of IRE1α to protect against ER stress-induced apoptosis. […] (FIG. 19B) Q-PCR for Ins1 mRNA in INS-1 IRE1α (WT) cells treated with Dox (5 ng/ml)−/+STF-083010 (50 M) over the indicated timecourse. (FIG. 19C) Annexin V staining of INS-1 cells after 72 hr with indicated [Tm]−/+STF-083010 (50 M). (FIG. 19D) Annexin V staining of INS-1 cells after 72 hr with Tm (0.2 μg/ml), STF-083010 (1 or 5 M), and KIRA6 (0.05 M) as indicated. Data plotted as mean+/−SD. P-values: *<0.05, **<0.01, ***<0.005.
For assaying apoptosis by Annexin V staining, cells were plated in 12-well plates overnight. Cells were then treated with various reagents for indicated time periods. On the day of flow cytometry analysis, cells were trypsinized and washed in PBS and resuspended in Annexin V binding buffer with Annexin-V FITC (BD Pharmingen™). Flow cytometry was performed on a Becton Dickinson LSRII flow cytometer.

endogenous IRE1α [1] = assay: IRE1α auto-phosphorylation immunoblot in INS-1 cells under ER stress; details: ER stress (Tg)
Description: (§1) FIGS. 5A-5E. […] (FIG. 5C) EtBr-stained agarose gel of XBP1 complementary DNA (cDNA) amplicons from the INS-1 cells described in (B).
(§2) To further explore how IRE1α modulators affect the kinase and RNase activities of endogenous IRE1α under ER stress, in vivo studies using INS-1 rat insulinoma cell lines, which are derived from insulin-producing pancreatic β-cell tumors and contain large well-developed ERs, were conducted.
For protein analysis, cells were lysed in M-PER buffer (Thermo Scientific) plus complete EDTA-free protease inhibitor (Roche) and phosphatase inhibitor cocktail (Sigma). The concentration of samples was determined using BCA Protein Assay (Thermo). […] Gels were run using MES buffer and transferred onto nitrocellulose transfer membrane using an XCell II™ Blot Module. Blocking, antibody incubation, and washing were done in PBS or TBS with 0.05% Tween-20 (v/v) and 5% (w/v) non-fat dry milk or BSA, or blocking buffer (Licor-Odyssey). Antibodies used were: mouse anti-Actin (Sigma-Aldrich); rabbit anti-cleaved Caspase-2 (Abcam); mouse anti-GAPDH, anti-c-Myc, anti-rabbit, anti-proinsulin, and anti-IRE1α (Santa Cruz Biotechnology); anti-phospho-IRE1α and anti-full length Caspase-2 (Novus Biologicals); and rabbit anti-Caspase-3, anti-JNK, anti-eIF2a, anti-phospho-eIF2a, and mouse anti-phospho-JNK (Cell Signaling). Antibody binding was detected by using near-infrared-dye-conjugated secondary antibodies (Licor) on the LI-COR Odyssey scanner or visualized by capturing on a CL-XPosure film using ECL SuperSignal West Dura Extended Duration Substrate (both from Thermo Scientific).

IRE1α (WT) = assay: Dox-induced IRE1α (WT) hyperactivation in INS-1 stable lines; details: STF-083010 at 50 µM
Text: These aforementioned terminal UPR signaling events can be completely mimicked simply by controlled over-expression of IRE1α, in the complete absence of upstream ER stress. Tetracycline-inducible isogenic INS-1 stable cell lines expressing WT IRE1α were generated. Induced with doxycycline (dox) the transgenic IRE1α proteins oligomerize, spontaneously trans-autophosphorylate and trigger XBP1 mRNA splicing. The transgenic systems are finely tuneable, with increasing [Dox] causing progressively greater IRE1α induction (the transgenic IRE1α protein is Myc-tagged). Phospho/Myc IRE1α ratios are finely controllable (and measureable) with increasing [Dox], as is XBP1 mRNA splicing. […] These include reduction of miR-17 and Ins1 mRNA, induction of CHOP mRNA, induction and proteolytic cleavage of caspases 1,2, and 3, and apoptosis as measured by Annexin-V staining. […]
For protein analysis, cells were lysed in M-PER buffer (Thermo Scientific) plus complete EDTA-free protease inhibitor (Roche) and phosphatase inhibitor cocktail (Sigma). The concentration of samples was determined using BCA Protein Assay (Thermo). […] Antibody binding was detected by using near-infrared-dye-conjugated secondary antibodies (Licor) on the LI-COR Odyssey scanner or visualized by capturing on a CL-XPosure film using ECL SuperSignal West Dura Extended Duration Substrate (both from Thermo Scientific).

endogenous IRE1α [2] = assay: XBP1 mRNA splicing in INS-1 cells under ER stress; details: thapsigargin (Tg) 6 nM
Description: as §1, §2

In the case of O=S(=O)(N=Cc1c(O)ccc2ccccc12)c1cccs1 [STF-083010, N-[(2-Hydroxy-1-naphthalenyl)methylene]-2-thiophenesulfonamide, reference compound], the “cytoprotection under Tm, single agent at the dose of the combination” value (INS-1 cells; STF-083010 1 M or KIRA6 50 nM alone) is reported as “sub-therapeutic individually”, the “apoptosis by Tm” value (INS-1 cells; STF-083010 at 50 µM) is reported as “decreases” and the “endogenous IRE1α auto-phosphorylation in INS-1 cells” value (endogenous IRE1α [1]) is reported as “does not prevent IRE1α auto-phosphorylation”. The “endogenous IRE1α auto-phosphorylation in INS-1 cells” value (endogenous IRE1α [1]; listed as STF) was “does not inhibit IRE1α auto-phosphorylation”, the “Ins1 mRNA decay under IRE1α hyperactivation” value (IRE1α (WT)) was “decreases Ins1 mRNA decay under IRE1α hyperactivation” and the “XBP1 mRNA splicing (IRE1α RNase activity) in INS-1 cells” value (endogenous IRE1α [2]) was “inhibits XBP1 splicing in a dose-dependent manner”.

— patent US20170165259A1, “COMBINED MODULATION OF IRE1” (THE REGENTS OF THE UNIVERSITY OF CALIFORNIA, priority 2014, published 2017)
